Each structure is given as a SMILES string.

The test relates to A2058 human melanoma cells. Put plainly: Cell migration test (LPA-induced migration, Chemo-Tx). In kind it is cell-based. The following applies: LPA final concentration 100 nM, 3 hours at 37° C., read-out: concentration (IC50) of the test compound required for 50% inhibition of the cell migration activity of LPA. The method, then:
The cell migration test was carried out using Chemo-Tx (registered trademark) (116-8, Neuro Probe). A2058 human melanoma cells (obtained from European Collection of Cell Culture) were cultured in a serum-free EMEM medium for 24 hours, and were re-suspended in a 0.1% BSA-containing DMEM medium to give a cell suspension. The test compounds dissolved in DMSO in various concentrations were each added to the cell suspension, and the suspensions were cultured at 37° C. for 15 minutes (final DMSO concentration 0.5%). LPA dissolved in a 0.1% BSA-containing DMEM medium (final concentration 100 nM) was added to a Chemo-Tx 96 well plate, and a Chemo-Tx filter coated with 0.001% Fibronectin on both sides was placed onto the plate. The cultured cell suspensions (25,000 cells) were added onto the upper surface of the filter and were further cultured at 37° C. for 3 hours. Thereafter, the cells on the upper surface of the filter were removed. After the filter was removed and was dried, the cells which had migrated to the lower surface of the filter were stained with Diff-Quik stain (16920, Sysmex). The absorbance of the filter (570 nm) was measured and the concentration (IC50) of the test compound required for 50% inhibition of the cell migration activity of LPA was determined by non-linear regression analysis using EXSAS (version 7.6.0, Arm Systex).
As for `COc1cc(-c2sc(F)cc2NC(=O)O[C@H](C)c2ccccc2Cl)ccc1-c1ccc(C2(C(=O)O)CC2)cc1` [Example 7, Sodium (R)-1-{4′-[3-({[1-(2-chlorophenyl)ethoxy]carbonyl}amino)-5-fluorothiophen-2-yl]-2′-methoxy-[1,1′-biphenyl]-4-yl}cyclopropanecarboxylate], the IC50 was no more than 0.2 µM.

Regarding `C[C@@H](OC(=O)Nc1cc(Cl)sc1-c1ccc(-c2ccc(C3(C(=O)O)CC3)cc2)cc1)c1ccsc1` [Example 10, Sodium (R)-1-{4′-[5-chloro-3-({[1-(thiophen-3-yl)ethoxy]carbonyl}amino)thiophen-2-yl]-[1,1′-biphenyl]-4-yl}cyclopropanecarboxylate], the IC50 is no more than 0.2 µM.

In the case of `COc1cc(-c2sc(Cl)cc2NC(=O)O[C@H](C)c2ccccc2)ccc1-c1ccc(C2(C(=O)O)CC2)cc1` [Example 1, Sodium (R)-1-[4′-(5-chloro-3-{[(1-phenylethoxy)carbonyl]amino}thiophen-2-yl)-2′-methoxy-[1,1′-biphenyl]-4-yl]cyclopropanecarboxylate], the IC50 was no more than 0.2 µM.

Take `COc1cc(-c2sc(Cl)cc2NC(=O)O[C@H](C)c2cc(F)ccc2F)ccc1-c1ccc(C2(C(=O)O)CC2)cc1` [Example 4, Sodium (R)-1-{4′-[5-chloro-3-({[1-(2,5-difluorophenyl)ethoxy]carbonyl}amino)thiophen-2-yl]-2′-methoxy-[1,1′-biphenyl]-4-yl}cyclopropanecarboxylate]: the IC50 was no more than 0.2 µM.

For the compound `Cc1cscc1[C@@H](C)OC(=O)Nc1cc(F)sc1-c1ccc(-c2ccc(C3(C(=O)O)CC3)cc2)cc1` [Example 13, Sodium (R)-1-{4′-[5-fluoro-3-({[1-(4-methylthiophen-3-yl)ethoxy]carbonyl}amino)thiophen-2-yl]-[1,1′-biphenyl]-4-yl}cyclopropanecarboxylate], the IC50 was no more than 0.2 µM.

These data come from patent publication US10023554B2, “Halogen-substituted heterocyclic compound salt” (UBE INDUSTRIES, LTD., priority 2014, dated 2018).
